Assay results as given in the supplement of paper PMC10307832.

Columns and labels:
Assay in all cases: relative viability (nuclei count vs DMSO), 5 days (fraction); higher = more cells survive
[1] = compound: CC(C)C[C@@H](C(=O)N[C@H](C(=O)OC1CCCC1)c1ccccc1)[C@H](O)C(=O)NO [Tosedostat] + COc1cccc2cc(-c3nc([C@H]4CC[C@H](C(=O)O)CC4)n4ncnc(N)c34)[nH]c12 [OSI-027] (partner 0.5 µM)
Procedure, shortened: (§1)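 Five library-drug doses in √10 steps were combined with a fixed anchor-drug dose, or a single drug was given alone, by pin tool to lung cancer cell lines in 1536-well plates the day after seeding. Nuclei were stained and counted after 5 days. Relative viability is the nuclei count in treated wells over that in vehicle wells, taken as the median of duplicate plates.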

[2] = compound: CC(C)C[C@@H](C(=O)N[C@H](C(=O)OC1CCCC1)c1ccccc1)[C@H](O)C(=O)NO [Tosedostat] + CS(=O)(=O)N1CCN(Cc2cc3nc(-c4cccc5[nH]ncc45)nc(N4CCOCC4)c3s2)CC1 [Pictilisib] (partner 1 µM)
Procedure, shortened: as §1

[3] = compound: CC(C)C[C@@H](C(=O)N[C@H](C(=O)OC1CCCC1)c1ccccc1)[C@H](O)C(=O)NO [Tosedostat] + C[C@]1(O)C[C@@H](c2nc(-c3ccc4ccc(-c5ccccc5)nc4c3)c3c(N)nccn32)C1 [Linsitinib] (partner 1 µM)
Procedure, shortened: as §1

[4] = compound: CC(C)C[C@@H](C(=O)N[C@H](C(=O)OC1CCCC1)c1ccccc1)[C@H](O)C(=O)NO [Tosedostat] + Cc1cc(Nc2cc(N3CCN(C)CC3)nc(Sc3ccc(NC(=O)C4CC4)cc3)n2)n[nH]1 [Tozasertib] (partner 0.1 µM)
Procedure, shortened: as §1

Row | Cell Line | relative viability ([1]; first compound 0.02 µM) | relative viability ([1]; first compound 0.06325 µM) | relative viability ([1]; first compound 0.2 µM) | relative viability ([1]; first compound 0.6325 µM) | relative viability ([1]; first compound 2 µM) | relative viability ([2]; first compound 0.02 µM) | relative viability ([2]; first compound 0.06325 µM) | relative viability ([2]; first compound 0.2 µM) | relative viability ([2]; first compound 0.6325 µM) | relative viability ([2]; first compound 2 µM) | relative viability ([3]; first compound 0.02 µM) | relative viability ([3]; first compound 0.06325 µM) | relative viability ([3]; first compound 0.2 µM) | relative viability ([3]; first compound 0.6325 µM) | relative viability ([3]; first compound 2 µM) | relative viability ([4]; first compound 0.02 µM) | relative viability ([4]; first compound 0.06325 µM) | relative viability ([4]; first compound 0.2 µM) | relative viability ([4]; first compound 0.6325 µM) | relative viability ([4]; first compound 2 µM)
1 | HCC-78 | 0.33 | 0.377 | 0.406 | 0.364 | 0.376 | 0.202 | 0.226 | 0.212 | 0.221 | 0.197 | 0.397 | 0.608 | 0.429 | 0.458 | 0.573 | 0.414 | 0.509 | 0.426 | 0.461 | 0.406
2 | HCC-366 | 1.15 | 0.806 | 1.01 | 0.643 | 0.594 | 0.167 | 0.154 | 0.0818 | 0.151 | 0.103 | 0.59 | 0.77 | 0.721 | 0.457 | 0.602 | 0.113 | 0.113 | 0.0994 | 0.0993 | 0.0727
3 | HCC-827 | 0.701 | 0.728 | 0.773 | 0.526 | 0.644 | 1.02 | 0.991 | 1.3 | 0.885 | 1.09 | 0.966 | 0.934 | 0.976 | 0.857 | 0.909 | 0.416 | 0.412 | 0.445 | 0.357 | 0.426
4 | HOP-62 | 0.836 | 0.813 | 0.885 | 0.671 | 0.664 | 0.94 | 0.676 | 0.717 | 0.487 | 0.867 | 1.07 | 0.977 | 0.849 | 0.693 | 0.712 | 0.393 | 0.31 | 0.329 | 0.323 | 0.152
5 | IA-LM |  |  |  |  |  | 0.447 | 0.308 | 0.36 | 0.302 | 0.403 | 0.688 | 0.596 | 0.463 | 0.445 | 0.474 |  |  |  |  | 
6 | LC-2-ad | 1.03 | 0.756 | 0.758 | 0.698 | 0.645 | 0.269 | 0.429 | 0.661 | 0.458 | 0.455 | 0.865 | 0.743 | 0.866 | 0.823 | 0.805 | 0.472 | 0.454 | 0.403 | 0.297 | 0.281
7 | LCLC-97TM1 | 0.603 | 0.451 | 0.442 | 0.418 | 0.497 | 0.177 |  |  | 0.147 | 0.186 | 0.181 |  |  | 0.205 | 0.167 | 0.216 | 0.203 | 0.184 | 0.165 | 0.172
8 | LCLC-103H | 0.553 | 0.417 | 0.491 | 0.502 | 0.472 | 0.733 | 0.567 | 0.666 | 0.714 | 0.54 | 1.29 | 1.08 | 1.06 | 1.18 | 1.36 | 0.508 | 0.512 | 0.545 | 0.407 | 0.276
9 | LK-2 | 0.174 | 0.214 | 0.239 | 0.219 | 0.199 | 0.613 | 0.583 | 0.576 | 0.606 | 0.812 | 0.883 | 0.465 | 0.562 | 0.743 | 0.913 | 0.17 | 0.208 | 0.165 | 0.162 | 0.162
10 | LOU-NH91 | 0.735 | 0.822 | 0.703 | 0.676 | 0.616 | 0.594 | 0.53 | 0.568 | 0.495 | 0.501 | 0.961 | 0.932 | 0.991 | 0.973 | 0.938 | 0.686 | 0.699 | 0.665 | 0.574 | 0.917
11 | NCI-H522 | 0.842 | 0.82 | 0.819 | 0.916 | 0.79 |  |  |  |  |  |  |  |  |  |  | 0.561 | 0.566 | 0.533 | 0.509 | 0.45
12 | NCI-H1299 |  |  |  |  |  | 0.813 | 0.77 | 0.646 | 0.485 | 0.316 | 1.13 | 0.878 | 0.984 | 0.878 | 0.839 |  |  |  |  | 
13 | NCI-H1563 | 0.813 | 0.797 | 0.788 | 0.891 | 0.836 | 0.636 | 0.657 | 0.708 | 0.712 | 0.616 | 1.25 | 1.16 | 1.26 | 1.29 | 1.4 |  |  |  |  | 
14 | NCI-H1623 | 0.433 | 0.429 | 0.456 | 0.462 | 0.453 |  |  |  |  |  |  |  |  |  |  | 0.41 | 0.42 | 0.425 | 0.387 | 0.42
15 | NCI-H1648 | 0.28 | 0.268 | 0.262 | 0.242 | 0.267 |  |  |  |  |  |  |  |  |  |  | 0.518 | 0.493 | 0.402 | 0.576 | 0.433
16 | NCI-H1650 | 0.606 | 0.633 | 0.662 | 0.639 | 0.706 | 0.696 | 0.599 | 0.652 | 0.645 | 0.558 |  |  |  |  |  | 0.333 | 0.503 | 0.339 | 0.238 | 0.242
17 | NCI-H1703 |  |  |  |  |  | 0.229 | 0.253 | 0.268 | 0.222 | 0.245 | 0.56 | 0.628 | 0.553 | 0.556 | 0.473 |  |  |  |  | 
18 | NCI-H1792 | 0.71 | 0.68 | 0.752 | 0.729 | 1.08 | 0.282 | 0.279 | 0.272 | 0.232 | 0.276 | 0.553 | 0.578 | 0.496 | 0.548 | 0.636 |  |  |  |  | 
19 | NCI-H2170 | 0.749 | 0.738 | 0.736 | 0.773 | 0.571 | 0.31 | 0.33 | 0.385 | 0.291 | 0.289 |  |  |  |  |  | 0.737 | 0.728 | 0.734 | 0.707 | 0.689
20 | NCI-H2342 | 0.627 | 0.708 | 0.632 | 0.576 | 0.599 |  |  |  |  |  |  |  |  |  |  | 0.489 | 0.537 | 0.522 | 0.496 | 0.491
21 | SW 900 | 0.619 | 0.505 | 0.544 | 0.476 | 0.322 |  |  |  |  |  |  |  |  |  |  | 0.573 | 0.482 | 0.421 | 0.427 | 0.314
